Measurements as given in patent US20250368647A1, “NITROGEN CONTAINING CONDENSED 2,3-DIHYDROQUINAZOLINONE COMPOUNDS AS NAV1.8 INHIBITORS” (GLAXOSMITHKLINE INTELLECTUAL PROPERTY DEVELOPMENT LIMITED, priority 2022, published 2025).

Target: human Nav1.8 (Homo sapiens (Human), UniProt Q9Y5Y9)
Assay: QPatch 48 HTX voltage-clamp electrophysiology, half inactivation state (V1/2) protocol, HEK293-Nav1.8 cells
Format: cell-based
Details: HEK293 cells expressing human Nav1.8, human Navβ1 and human TREK1, P2 current
Method in brief: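 HEK293 cells co-expressing Navβ1 and TREK1 were voltage-clamped from −100 mV: a 20 ms step to 0 mV, 8 s inactivation at −46 mV, 20 ms at −100 mV, then a 20 ms P2 test step to 0 mV, repeated every 15 s. P2 current was normalized to vehicle and full block, corrected for run-down, and Hill-fitted (4–6 concentrations) for IC50.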

Chain of human Nav1.8 (Q9Y5Y9 whole entry): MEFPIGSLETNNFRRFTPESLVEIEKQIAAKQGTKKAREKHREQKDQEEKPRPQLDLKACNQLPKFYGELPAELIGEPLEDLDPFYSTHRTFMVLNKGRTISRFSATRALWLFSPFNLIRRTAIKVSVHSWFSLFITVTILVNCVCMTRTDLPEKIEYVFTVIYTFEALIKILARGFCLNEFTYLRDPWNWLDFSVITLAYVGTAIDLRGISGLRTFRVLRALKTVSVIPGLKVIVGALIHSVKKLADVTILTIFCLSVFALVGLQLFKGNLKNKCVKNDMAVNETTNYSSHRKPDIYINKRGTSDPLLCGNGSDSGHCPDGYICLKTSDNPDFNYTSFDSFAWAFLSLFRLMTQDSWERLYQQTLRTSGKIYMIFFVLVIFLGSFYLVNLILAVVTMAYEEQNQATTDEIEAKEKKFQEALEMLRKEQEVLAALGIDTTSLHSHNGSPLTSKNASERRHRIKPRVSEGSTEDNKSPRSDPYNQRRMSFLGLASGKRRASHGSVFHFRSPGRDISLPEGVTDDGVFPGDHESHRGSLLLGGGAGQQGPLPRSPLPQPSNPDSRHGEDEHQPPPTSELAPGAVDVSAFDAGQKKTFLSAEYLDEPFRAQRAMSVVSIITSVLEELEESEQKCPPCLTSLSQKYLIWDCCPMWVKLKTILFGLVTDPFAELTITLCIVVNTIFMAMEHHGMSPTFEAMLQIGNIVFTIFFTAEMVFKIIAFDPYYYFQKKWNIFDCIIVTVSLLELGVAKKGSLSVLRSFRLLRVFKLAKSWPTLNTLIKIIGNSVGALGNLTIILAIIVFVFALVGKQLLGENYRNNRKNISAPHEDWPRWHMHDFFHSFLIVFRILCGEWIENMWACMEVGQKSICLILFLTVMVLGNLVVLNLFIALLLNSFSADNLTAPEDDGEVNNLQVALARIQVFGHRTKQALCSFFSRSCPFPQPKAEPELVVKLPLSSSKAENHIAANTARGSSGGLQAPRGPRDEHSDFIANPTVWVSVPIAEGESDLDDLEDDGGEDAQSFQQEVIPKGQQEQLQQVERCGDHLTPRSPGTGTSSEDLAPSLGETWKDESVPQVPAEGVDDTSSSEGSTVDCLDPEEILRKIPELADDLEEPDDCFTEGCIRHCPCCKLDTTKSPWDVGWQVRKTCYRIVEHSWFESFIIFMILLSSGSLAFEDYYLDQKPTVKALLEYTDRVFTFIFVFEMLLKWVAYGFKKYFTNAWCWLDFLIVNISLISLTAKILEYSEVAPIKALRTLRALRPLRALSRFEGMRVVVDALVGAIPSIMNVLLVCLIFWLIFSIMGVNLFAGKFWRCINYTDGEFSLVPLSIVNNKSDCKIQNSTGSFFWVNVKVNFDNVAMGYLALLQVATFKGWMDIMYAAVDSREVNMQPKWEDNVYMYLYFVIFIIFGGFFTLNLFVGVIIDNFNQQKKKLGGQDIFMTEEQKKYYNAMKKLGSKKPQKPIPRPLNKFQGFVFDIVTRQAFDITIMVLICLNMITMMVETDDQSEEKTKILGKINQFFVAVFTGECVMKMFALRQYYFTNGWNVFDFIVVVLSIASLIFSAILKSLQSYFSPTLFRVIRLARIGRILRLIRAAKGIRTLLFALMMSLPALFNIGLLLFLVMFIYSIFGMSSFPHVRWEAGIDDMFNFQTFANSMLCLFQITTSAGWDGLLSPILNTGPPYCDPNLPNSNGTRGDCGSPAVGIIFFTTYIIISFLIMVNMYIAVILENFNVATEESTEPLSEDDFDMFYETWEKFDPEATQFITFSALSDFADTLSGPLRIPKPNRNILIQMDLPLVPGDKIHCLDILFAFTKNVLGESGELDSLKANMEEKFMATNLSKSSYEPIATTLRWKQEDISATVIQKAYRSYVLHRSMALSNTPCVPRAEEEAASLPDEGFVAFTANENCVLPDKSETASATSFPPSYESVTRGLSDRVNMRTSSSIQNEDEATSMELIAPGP
Chain of human Nav1.8 (Q07699 19-218 partner): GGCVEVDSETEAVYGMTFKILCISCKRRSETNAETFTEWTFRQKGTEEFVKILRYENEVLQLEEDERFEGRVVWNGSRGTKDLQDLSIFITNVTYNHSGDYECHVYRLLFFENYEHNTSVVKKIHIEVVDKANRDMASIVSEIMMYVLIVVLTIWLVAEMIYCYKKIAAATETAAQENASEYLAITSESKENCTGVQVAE

Row | SMILES | Nav1.8, pIC50
1 | Cl.O=C1c2cc(F)c(Br)cc2N2CN1c1ccc(=O)[nH]c1CCNCc1cc(F)ccc12 [Example 63, 3-Bromo-2,8-difluoro-10,11,12,13-tetrahydro-19H-5,18-methanodibenzo[c,f]pyrido[3,2-j][1,5,9]triazacyclotridecine-15,19(14H)-dione hydrochloride] | 8
2 | Cl.O=C1c2cc(F)c(F)cc2N2CN1c1ccc(=O)[nH]c1CCNCc1c2ccc(F)c1Cl [Example 64, 9-Chloro-2,3,8-trifluoro-10,11,12,13-tetrahydro-19H-5,18-methanodibenzo[c,f]pyrido[3,2-i][1,5,9]triazacyclotridecine-15,19(14H)-dione hydrochloride] | 8.2
3 | Cl.[2H]C1([2H])N2C(=O)c3cc(F)c(F)cc3N1c1ccc(F)c(Cl)c1CNCCc1[nH]c(=O)ccc12 [Example 65, 9-Chloro-2,3,8-trifluoro-10,11,12,13-tetrahydro-19H-5,18-methanodibenzo[c,f]pyrido[3,2-j][1,5,9]triazacyclotridecine-15,19(14H)-dione-20,20-d2 hydrochloride] | 8.3
4 | Cl.O=C1c2cc(F)c(C(F)(F)F)cc2N2CN1c1ccc(=O)[nH]c1CCNCc1cc(Cl)ccc12 [Example 66, 8-Chloro-2-fluoro-3-(trifluoromethyl)-10,11,12,13-tetrahydro-19H-5,18-methanodibenzo[c,f]pyrido[3,2-j][1,5,9]triazacyclotridecine-15,19(14H)-dione hydrochloride] | 8.2
5 | N#Cc1cc2c(cc1F)C(=O)N1CN2c2ccc(F)c(Cl)c2CNCCc2[nH]c(=O)ccc21 [Example 67, 9-chloro-2,8-difluoro-15,19-dioxo-10,11,12,13,14,15-hexahydro-19H-5,18-methanodibenzo[c,f]pyrido[3,2-j][1,5,9]triazacyclotridecine-3-carbonitrile] | 8.3
6 | Cc1c(F)ccc2c1CNCCc1[nH]c(=O)ccc1N1CN2c2cc(F)c(F)cc2C1=O.Cl [Example 68, 2,3,8-Trifluoro-9-methyl-10,11,12,13-tetrahydro-19H-5,18-methanodibenzo[c,f]pyrido[3,2-j][1,5,9]triazacyclotridecine-15,19(14H)-dione hydrochloride] | 7.7
7 | Cl.O=C1c2cc(Cl)c(F)cc2N2CN1c1ccc(=O)[nH]c1CCNCc1c2ccc(F)c1F [Example 69, 2-Chloro-3,8,9-trifluoro-10,11,12,13-tetrahydro-19H-5,18-methanodibenzo[c,f]pyrido[3,2-j][1,5,9]triazacyclotridecine-15,19(14H)-dione hydrochloride] | 7.6
8 | COc1c(F)ccc2c1CNCCc1[nH]c(=O)ccc1N1CN2c2cc(F)c(F)cc2C1=O.O=CO [Example 70, 2,3,8-Trifluoro-9-methoxy-10,11,12,13-tetrahydro-19H-5,18-methanodibenzo-[c,f]pyrido[3,2-j][1,5,9]triazacyclotridecine-15,19(14H)-dione, Formic acid salt] | 6.1
9 | Cc1c(F)ccc2c1CNCCc1[nH]c(=O)ccc1N1CN2c2cc(C#N)c(F)cc2C1=O.Cl [Example 71, 2,8-Difluoro-9-methyl-15,19-dioxo-10,11,12,13,14,15-hexahydro-19H-518-methanodibenzo-[c,f]pyrido[3,2-j][1,5,9]triazacyclotridecine-3-carbonitrile hydrochloride] | 7.6
10 | Cl.N#Cc1cc2c(cc1Cl)C(=O)N1CN2c2ccc(F)c(F)c2CNCCc2[nH]c(=O)ccc21 [Example 72, 2-Chloro-8,9-difluoro-15,19-dioxo-10,11,12,13,14,15-hexahydro-19H-5,18-methanodibenzo-[c,f]pyrido[3,2-j][1,5,9]triazacyclotridecine-3-carbonitrile hydrochloride] | 7.5
11 | COc1c(F)ccc2c1CNCCc1[nH]c(=O)ccc1N1CN2c2cc(C#N)c(F)cc2C1=O.Cl [Example 73, 2,8-Difluoro-9-methoxy-15,19-dioxo-10,11,12,13,14,15-hexahydro-19H-5,18-methanodibenzo-[c,f]pyrido[3,2-j][1,5,9]triazacyclotridecine-3-carbonitrile hydrochloride] | 6.1
12 | Cl.O=C1c2cc(F)c(F)cc2N2CN1c1ccc(=O)[nH]c1CCNCc1c2ccc(Cl)c1F [Example 74, 8-Chloro-2,3,9-trifluoro-10,11,12,13-tetrahydro-19H-5,18-methanodibenzo-[c,f]pyrido[3,2-j][1,5,9]triazacyclotridecine-15,19(14H)-dione hydrochloride] | 7.3
13 | Cl.O=C1c2cc(F)c(F)cc2N2CN1c1ccc(=O)[nH]c1CCNCc1c(OC(F)F)cccc12 [Example 75, 9-(Difluoromethoxy)-2,3-difluoro-10,11,12,13-tetrahydro-19H-5,18-methanodibenzo[c,f]pyrido[3,2-j][1,5,9]triazacyclotridecine-15,19(14H)-dione hydrochloride] | 5.4
14 | Cl.O=C1c2cc(F)c(F)cc2N2CN1c1ccc(=O)[nH]c1CCNCc1cc(Cl)ccc12 [Example 76, 8-Chloro-2,3-difluoro-10,11,12,13-tetrahydro-19H-5,18-methanodibenzo[c,f]pyrido[3,2-j][1,5,9]triazacyclotridecine-15,19(14H)-dione hydrochloride] | 7.2
15 | Cl.O=C1c2cc(F)c(F)cc2N2CN1c1ccc(=O)[nH]c1CCNCc1c2ccc(Cl)c1Cl [Example 77, 8,9-Dichloro-2,3-difluoro-10,11,12,13-tetrahydro-19H-5,18-methanodibenzo[c,f]pyrido[3,2-j][1,5,9]triazacyclotridecine-15,19(14H)-dione hydrochloride] | 8.7
16 | Cl.O=C1c2cc(C(F)(F)F)ccc2N2CN1c1ccc(=O)[nH]c1CCNCc1ccccc12 [Example 78, 2-(Trifluoromethyl)-10,11,12,13-tetrahydro-19H-5,18-methanodibenzo[c,f]pyrido[3,2-j][1,5,9]triazacyclotridecine-15,19(14H)-dione hydrochloride] | 6.7
17 | Cl.O=C1c2cc(F)c(F)cc2N2CN1c1ccc(=O)[nH]c1CCNCc1c(C(F)F)cccc12 [Example 79, 9-(Difluoromethyl)-2,3-difluoro-10,11,12,13-tetrahydro-19H-5,18-methanodibenzo[c,f]pyrido[3,2-j][1,5,9]triazacyclotridecine-15,19(14H)-dione hydrochloride] | 7.1
18 | Cl.O=C1c2cc(F)c(C(F)(F)F)cc2N2CN1c1ccc(=O)[nH]c1CCNCc1c(F)cccc12 [Example 80, 2,9-Difluoro-3-(trifluoromethyl)-10,11,12,13-tetrahydro-19H-5,18-methanodibenzo-[c,f]pyrido[3,2-j][1,5,9]triazacyclotridecine-15,19(14H)-dione hydrochloride] | 7.7
19 | Cl.O=C1c2cc(F)c(C(F)(F)F)cc2N2CN1c1ccc(=O)[nH]c1CCNCc1c(Cl)cccc12 [Example 81, 9-Chloro-2-fluoro-3-(trifluoromethyl)-10,11,12,13-tetrahydro-19H-5,18-methanodibenzo-[c,f]pyrido[3,2-j][1,5,9]triazacyclotridecine-15,19(14H)-dione hydrochloride] | 8.5
20 | Cl.N#Cc1c(F)ccc2c1CNCCc1[nH]c(=O)ccc1N1CN2c2cc(C(F)(F)F)c(F)cc2C1=O [Example 82, 2,8-Difluoro-15,19-dioxo-3-(trifluoromethyl)-10,11,12,13,14,15-hexahydro-19H-5,18-methanodibenzo[c,f]pyrido[3,2-j][1,5,9]triazacyclotridecine-9-carbonitrile hydrochloride] | 7.9
21 | N#Cc1c(F)ccc2c1CNCCc1[nH]c(=O)ccc1N1CN2c2cc(F)c(F)cc2C1=O [Example 83, 2,3,8-Trifluoro-15,19-dioxo-10,11,12,13,14,15-hexahydro-19H-5,18-methano-dibenzo[c,f]pyrido[3,2-j][1,5,9]triazacyclotridecine-9-carbonitrile] | 6.8
22 | O=C1c2cc(F)c(F)cc2N2CN1c1ccc(=O)[nH]c1CCNCc1c2ccc(F)c1O.O=CO [Example 84, 2,3,8-Trifluoro-9-hydroxy-10,11,12,13-tetrahydro-19H-5,18-methanodibenzo-[c,f]pyrido[3,2-j][1,5,9]triazacyclotridecine-15,19(14H)-dione, formic acid salt] | 5.5
23 | Cl.O=C1c2cc(F)c(C(F)(F)F)cc2N2CN1c1ccc(=O)[nH]c1CCNCc1c2ccc(F)c1O [Example 85, 2,8-Difluoro-9-hydroxy-3-(trifluoromethyl)-10,11,12,13-tetrahydro-19H-5,18-methanodibenzo[c,f]pyrido[3,2-i][1,5,9]triazacyclotridecine-15,19(14H)-dione hydrochloride] | 6.4
24 | Cl.O=C1c2cc(F)c(F)cc2N2CN1c1ccc(=O)[nH]c1CCNCc1cc(OC(F)(F)F)ccc12 [Example 86, 2,3-Difluoro-8-(trifluoromethoxy)-10,11,12,13-tetrahydro-19H-5,18-methanodibenzo[c,f]pyrido[3,2-j][1,5,9]triazacyclotridecine-15,19(14H)-dione hydrochloride] | 7.5
25 | Cl.O=C1c2cc(F)c(F)cc2N2CN1c1ccc(=O)[nH]c1CCNCc1c2ccc(OC(F)(F)F)c1F [Example 87, 2,3,9-Trifluoro-8-(trifluoromethoxy)-10,11,12,13-tetrahydro-19H-5,18-methanodibenzo[c,f]pyrido[3,2-j][1,5,9]triazacyclotridecine-15,19(14H)-dione hydrochloride] | 7.9
26 | Cl.N#Cc1cc2c(cc1F)C(=O)N1CN2c2ccc(OC(F)(F)F)cc2CNCCc2[nH]c(=O)ccc21 [Example 88, 2-Fluoro-15,19-dioxo-8-(trifluoromethoxy)-10,11,12,13,14,15-hexahydro-19H-5,18-methanodibenzo[c,f]pyrido[3,2-j][1,5,9]triazacyclotridecine-3-carbonitrile hydrochloride] | 7.7
